One data set has as its system PSA. Put plainly: Plasma levels of PSA in LNCaP-Bic tumor bearing nude mice, ELISA. The data set is classed as in vivo. The note with it: Mus musculus, po, 336 h; 10 mg/kg/day orally, once daily, 14 consecutive days; plasma PSA by ELISA; read-out: T/C(%) (10 mg/kg/day), plasma levels of PSA treated/control. The procedure: (§1) Human prostate cancer cells (LNCaP-Bic) were transplanted in nude mice (6 males/group) and the inhibitory effect of the invention on their growth was examined. In the study, the tumor cell suspension with matrigel was inoculated at 0.12 mL/body (2.4×10^6 cells/body) into the subcutaneous space of the right axillary region to prepare tumor bearing mice. When the tumor diameter became 5 mm or more, the animals were allocated to groups based on the tumor volume. The test compound was administered orally as a suspension in 5% gum arabic, once daily, for 14 consecutive days. The control group received 5% gum arabic. Tumor volumes were measured on the following day of the last administration. Tumors were removed and the wet weight of the tumor was measured using an electronic balance. The ratio of the tumor weight in the treated group to that in the control group (T/C %) was calculated as the index for the effect. T/C %=(Mean tumor weight in the treatment group/Mean tumor weight in the control group)×100.
The heparinized blood was collected from the postcava under diethylether anesthesia. The plasma levels of PSA were measured using ELISA. The ratio of the plasma levels of PSA in the treated group to that in the control group (T/C %) was calculated as the index for the effect. T/C %=(Mean plasma levels of PSA in the treatment group/Mean plasma levels of PSA in the control group)×100.
For orientation: ELISA stands for enzyme-linked immunosorbent assay.

Data set [1] has as its system human prostate (adenocarcinoma) cell line (VcaP). Put plainly: Growth inhibition of VcaP cells, WST-8 assay. The conditions noted are these: 120 h, 5 days with test compound. The data set is classed as cell-based. The procedure: (§2) The growth inhibition on a bicalutamide resistant human prostate cancer cell line established from LNCaP.FGC (LNCaP-Bic) (Hobisch A, et al. Prostate. 2006; 66(4):413-20.) was determined by a WST-8 assay according to the method of Singh A K, et al. (Cancer Lett. 1996 Oct. 1; 107(1): 109-15.). In this method, LNCaP-Bic cells were seeded in RPMI 1640 medium containing 10% fetal bovine serum in a 96-well microplate and incubated at 37° C. for 24 hours in the presence of 5% carbon dioxide. Then, the test compound was added and the cells were incubated for another 5 days. After incubation, a 15-μL volume of WST-8 (2-(2-methoxy-4-nitrophenyl)-3-(4-nitrophenyl)-5-(2,4-[…])-2H-tetrazolium, monosodium salt) was added. After the incubation for the time, the color reaction was stopped by adding 15 μL of 1% SDS (sodium dodecyl sulfate) solution and the optical density was determined at the measurement wavelength of 450 nm and the reference wavelength of 630 nm, and the difference was calculated. The cell growth activity in each well was defined as the value determined by subtracting the OD in the control well not containing cells (the difference in absorbance between 450 nm and 630 nm) from that in the test well.
(§3) The 50% inhibitory concentration (IC50 (nM)) of the test compound was determined by comparing the cell growth activity in the well containing the test compound with that of the control not containing the test compound.
The growth inhibition on a human prostate (adenocarcinoma) cell line (VcaP) (Korenchuk S, et al. In Vivo. 2001; 15(2):163-8.) was also determined by the above method.
In general terms: Tetrazolium assays rely on reduction of a dye to a coloured formazan, in cell work by metabolically active cells.

Data set [2] deals with Human prostate cancer cells (LNCaP-Bic). Description: Antitumor effect on LNCaP-Bic tumors transplanted in nude mice, tumor weight. The data set is classed as in vivo. The conditions noted are these: Mus musculus, po, 336 h, 10 mg/kg/day orally, once daily, 14 consecutive days, read-out: T/C(%) (10 mg/kg/day), tumor weight treated/control. How it is done:
as §1

In data set [3] the test system is human prostate (adenocarcinoma) cell line (PC-3). Put plainly: Growth inhibition of PC-3 cells, WST-8 assay. The data set is classed as cell-based. The note with it: 120 h, 5 days with test compound. The procedure: as §2, §3
The growth inhibition on a human prostate (adenocarcinoma) cell line (PC-3) (van Bokhoven A, et al. Prostate. 2003; 57(3):205-25.) was also determined by the above method.

Data set [4] has as its system bicalutamide resistant human prostate cancer cell line established from LNCaP.FGC (LNCaP-Bic). Put plainly: Growth inhibition of LNCaP-Bic cells, WST-8 assay. The data set is classed as cell-based. The note with it: 120 h, 5 days with test compound. How it is done:
as §2, §3

Data set [5] concerns human prostate (carcinoma) cell line (LNCaP.FGC). Description: Growth inhibition of LNCaP.FGC cells, WST-8 assay. The data set is classed as cell-based. The conditions noted are these: 120 h, 5 days with test compound. The procedure: as §2, §3
The growth inhibition on a human prostate (carcinoma) cell line (LNCaP.FGC) (van Bokhoven A, et al. Prostate. 2003; 57(3):205-25.) was also determined by the above method.

In data set [6] the test system is human prostate (carcinoma) cell line (DU 145). Description: Growth inhibition of DU 145 cells, WST-8 assay. The data set is classed as cell-based. The conditions noted are these: 120 h, 5 days with test compound. How it is done:
as §2, §3
The growth inhibition on a human prostate (carcinoma) cell line (DU 145) (van Bokhoven A, et al. Prostate. 2003; 57(3):205-25.) was also determined by the above method.

Data set [7] deals with human breast cancer cell line (MDA-MB-468). Put plainly: Growth inhibition of MDA-MB-468 cells, sulforhodamine B method. The data set is classed as cell-based. The conditions noted are these: 120 h, 5 days with test compound. A digest of the protocol: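 MDA-MB-468 cells in DMEM/10% FBS were incubated 24 h at 37° C., then exposed to compound for 5 days. After TCA fixation and sulforhodamine B staining, OD 492 nm minus 690 nm was read with cell-free background subtracted. IC50 was set against untreated control.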

In data set [8] the test system is human hepatic cancer cell line (HuH-7). Description: Growth inhibition of HuH-7 cells, sulforhodamine B method. The data set is classed as cell-based. The note with it: Homo sapiens, 120 h, 5 days with test compound. The procedure: Growth inhibition of a human breast cancer cell line (MDA-MB-468) was determined by the sulforhodamine B method based on the method of Skehan P. et al. (J Natl Cancer Inst. 1990 Jul. 4; 82(13): 1107-12). In the study, MDA-MB-468 cells were seeded on DMEM medium containing 10% fetal bovine serum in a 96-well microplate. After 24-h incubation at 37° C. in the presence of 5% carbon dioxide, the test compound was added and the cells were incubated for another 5 days. After incubation, a trichloroacetic acid solution was added to yield the final concentration of 10% and the cells were left to stand at 4° C. for 1 hour to fix. Then, the cells were washed with water to remove the medium and trichloroacetic acid and dried in the air. The dried cells were stored at 4° C. until they were stained with sulforhodamine B. To each well, 1% acetic acid solution containing 0.4% sulforhodamine B was added and left to stand for 20 to 30 minutes at room temperature. After discarding the supernatant, each well was washed with 1% acetic acid solution, and 10 mM Tris([…]) solution was added while stirring to elute the dye taken into the cells. Then, the optical density was determined at the measurement wavelength of 492 nm and the reference wavelength of 690 nm, and the difference was calculated. The cell growth activity in each well was defined as the value determined by subtracting the OD in the control well not containing cells (the difference in absorbance between 492 nm and 690 nm) from that in the test well.
as §3
The growth inhibition on a human hepatic cancer cell line (HuH-7) was also determined by the above method.
(Sulforhodamine B stains cellular protein and so reports cell mass.)

pIC50: −log10 of the molar value. Counter-ions that a name gives are not always drawn.

By IC50 is commonly meant the concentration at which inhibition is half-maximal. The low end stands for greater potency in that assay, the high end for weaker potency in that assay. Broadly, the melting point is the temperature, or range, at which the solid turns liquid. Compound `Cc1cc(/C=C/C(=O)N2CCN(Cc3ccc(CCOc4ccc(F)cc4)cc3)CC2)cc(Cl)c1Oc1ccc(OCc2ccc(Cl)cc2)cn1.Cl` [Example 429, (E)-3-[3-Chloro-4-({5-[(4-chlorobenzyl)oxy]pyridin-2-yl}oxy)-5-methylphenyl]-1-(4-{4-[2-(4-fluorophenoxy)ethyl]benzyl}piperazin-1-yl)prop-2-en-1-one hydrochloride] had a melting point of 224.4 to 228.8 °C. In addition, the response vs control in vivo at 10 mg/kg in the data set with PSA is under 50%. In addition, the IC50 in [1] was under 10 nM. In addition, in data set [2], the response vs control in vivo at 10 mg/kg was under 50%. This compound yielded an IC50 in [3] of under 10 nM. The IC50 in [4] is under 10 nM. Further, the IC50 in data set [5] is under 10 nM. Besides, the IC50 in data set [6] is under 10 nM.
Broadly, the pIC50 is the negative decadic logarithm of the IC50, by convention in mol/L. On to `Cc1ccccc1COc1ccc(Oc2c(C)cc(/C=C/C(=O)N3CCN(Cc4ccc(CCOc5ccc(F)cc5)cc4)CC3)cc2Cl)nc1.Cl` [Example 448, (E)-3-[3-Chloro-5-methyl-4-({5-[(2-methylbenzyl)oxy]pyridin-2-yl}oxy)phenyl]-1-(4-{4-[2-(4-fluorophenoxy)ethyl]benzyl}piperazin-1-yl)prop-2-en-1-one hydrochloride], for which the melting point was in the range of 210.3 to 210.6 °C. This compound also returned an IC50 in [1] of under 10 nM. The IC50 in [3] is under 10 nM. Further, the pIC50 in data set [7] was over 8.00. In addition, in [4], the IC50 was under 10 nM. Besides, the IC50 in data set [5] was under 10 nM. Moreover, the pIC50 in data set [8] is over 8.00. In addition, the IC50 in [6] was under 10 nM.
With `Cc1cc(/C=C/C(=O)N2CCN(Cc3ccc(CCOc4ccc(C(C)C)cc4)cc3)CC2)cc(Cl)c1Oc1ccc(OCc2ccccc2F)cn1.Cl` [Example 454, (E)-3-[3-Chloro-4-({5-[(2-fluorobenzyl)oxy]pyridin-2-yl}oxy)-5-methylphenyl]-1-[4-(4-{2-[4-(propan-2-yl)phenoxy]ethyl}benzyl)piperazin-1-yl]prop-2-en-1-one hydrochloride], the melting point was in the range of 188 to 189.5 °C. Besides, the IC50 in [1] is under 10 nM. In data set [3], the IC50 was under 10 nM. Also, in [7], the pIC50 is over 8.00. For the same compound, the IC50 in [4] is under 10 nM. In addition, the IC50 in [5] was under 10 nM. For the same compound, the pIC50 in data set [8] is over 8.00. Also, the IC50 in data set [6] was under 10 nM.
As for `Cc1cc(/C=C/C(=O)N2CCN(Cc3ccc(CCOc4ccc(Cl)cc4)cc3)CC2)cc(C)c1Oc1ccc(OCc2ccc(C#N)cc2)cn1.Cl` [Example 558, 4-{[(6-{4-[(E)-3-(4-{4-[2-(4-Chlorophenoxy)ethyl]benzyl}piperazin-1-yl)-3-oxoprop-1-en-1-yl]-2,6-dimethylphenoxy}pyridin-3-yl)oxy]methyl}benzonitrile hydrochloride], the melting point was 219.7 to 220.7 °C. Besides, in [1], the IC50 is under 10 nM. Further, the concentration for half-maximal inhibition (IC50) in data set [3] is under 10 nM. In addition, in data set [4], the IC50 is under 10 nM. The IC50 in data set [5] is under 10 nM. In addition, the pIC50 in data set [8] is over 8.00. Moreover, in [6], the IC50 is under 10 nM.
With `Cc1cc(/C=C/C(=O)N2CCN(Cc3ccc(CCOc4ccc(C(C)C)cc4)cc3)CC2)cc(C)c1Oc1ccc(OCc2cscn2)cn1` [Example 600, (E)-3-(3,5-Dimethyl-4-{[5-(1,3-thiazol-4-ylmethoxy)pyridin-2-yl]oxy}phenyl)-1-[4-(4-{2-[4-(propan-2-yl)phenoxy]ethyl}benzyl)piperazin-1-yl]prop-2-en-1-one hydrochloride], the concentration for half-maximal inhibition (IC50) in data set [1], in [3], in data set [4], in data set [5] and in [6] was under 10 nM throughout. Also, in [8], the pIC50 is over 8.00.
Regarding `Cc1cc(/C=C/C(=O)N2CCN(Cc3ccc(CCOc4ccc(C(C)C)cc4)cc3)CC2)cc(Cl)c1Oc1ccc(OCc2ccccc2Cl)cn1` [Example 608, (E)-3-[3-Chloro-4-({5-[(2-chlorobenzyl)oxy]pyridin-2-yl}oxy)-5-methylphenyl]-1-[4-(4-{2-[4-(propan-2-yl)phenoxy]ethyl}benzyl)piperazin-1-yl]prop-2-en-1-one hydrochloride], the IC50 in [1], in [3], in [4], in data set [5] and in data set [6] was under 10 nM in each case. In addition, the pIC50 in data set [7] and in data set [8] was over 8.00 each time.
`Cc1cc(/C=C/C(=O)N2CCN(Cc3ccc(Oc4ccc(Cl)cc4)cc3)CC2)cc(C)c1Oc1ccc(OCc2ccc(C#N)cc2)cn1.Cl` [Example 692, 4-{[(6-{4-[(E)-3-{4-[4-(4-Chlorophenoxy)benzyl]piperazin-1-yl}-3-oxoprop-1-en-1-yl]-2,6-dimethylphenoxy}pyridin-3-yl)oxy]methyl}benzonitrile hydrochloride] gave a melting point of 231.9 to 233.7 °C. For the same compound, in [8], the pIC50 was over 8.00.
For `C/C(C(=O)N1CCN(Cc2ccc(CCOc3ccc(F)cc3)cc2)CC1)=C(/C)c1cc(C)c(Oc2ccc(OCc3ccc(C)cc3)cn2)c(Cl)c1.O=C(O)C(=O)O` [Example 751, (E)-3-[3-Chloro-5-methyl-4-({5-[(4-methylbenzyl)oxy]pyridin-2-yl}oxy)phenyl]-1-(4-{4-[2-(4-fluorophenoxy)ethyl]benzyl}piperazin-1-yl)-2-methylbut-2-en-1-one ethanedioate] the same measures were 236.1 to 236.6 °C and over 8.00.
For `COc1cccc(OCCc2ccc(CN3CCN(C(=O)/C=C/c4ccc(Oc5ccc(OCc6ccc(F)cc6)cn5)c(Cl)c4)CC3)cc2)c1.Cl` [Example 757, (E)-3-[3-chloro-4-({5-[(4-fluorobenzyl)oxy]pyridin-2-yl}oxy)phenyl]-1-(4-{4-[2-(3-methoxyphenoxy)ethyl]benzyl}piperazin-1-yl)prop-2-en-1-one hydrochloride], in that order: 201.5 to 202 °C and over 8.00.
